One data set has as its system NCTC 929 (ATCC CCL 1). Nature of the data set: MTS viability assay, solubilized peptides. It counts as cell-based, murine. The settings on record: 500 µM; at each timepoint (6, 24, 72 h). Background: Formazan colour is commonly taken as a measure of viable cells.
The target in a further data set is proteinase K (Parengyodontium album, UniProt P06873). The data set can be described thus: Biostability against proteinase K. The settings on record: after 672 h (28 days); 0.02 w/v% peptide in PBS; proteinase K 3 U/mL; 37 °C; RP-HPLC peak area vs t = 0; mean n = 3. Format: in vitro ADME. On the procedure: Peptides were tested for stability at multiple time points over 28 days by incubation with the broad‐spectrum protease proteinase K. Peptides were tested in solution form at concentrations below their critical gelation concentrations (0.02 w/v%) to reduce any resistance to proteolysis offered by the hydrogel matrix itself.^[ [76] ^] 1 mL aliquots of peptide dissolved in PBS buffer were added to Eppendorf tubes. Proteinase K was added at a concentration of 3 U/mL and incubated at 37 °C. Then 100 µL samples were removed at pre‐determined time points (t = 0, 0.5, 1, 3, 6, 24, 72, 168, 336, 504, and 672 h) and added to 50 µL of concentrated acetic acid to inactivate proteinase K enzyme. Then 100 µL samples were then analyzed via RP‐HPLC. The amount of peptide remaining at each time point was calculated based on the area of the peak corresponding to the peptide and presented as a percentage of the area of this peak at t = 0 (Equation (1)). (1) %Peptideremaining=Areaofpeptidepeakattesttimepoint/[Areaofpeptidepeakatt=0]×100
Chain of proteinase K (P06873 106-384): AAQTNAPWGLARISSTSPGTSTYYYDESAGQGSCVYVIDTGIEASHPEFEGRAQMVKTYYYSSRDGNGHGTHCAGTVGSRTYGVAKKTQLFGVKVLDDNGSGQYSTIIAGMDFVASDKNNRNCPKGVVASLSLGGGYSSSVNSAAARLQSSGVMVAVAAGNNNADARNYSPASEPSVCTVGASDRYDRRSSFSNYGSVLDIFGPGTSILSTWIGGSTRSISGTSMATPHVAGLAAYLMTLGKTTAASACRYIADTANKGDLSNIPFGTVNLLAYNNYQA

Data set [1] is described as follows: Small angle neutron scattering (SANS) of hydrogels. Format: physicochemical. The settings on record: 2 w/v% hydrogels in D2O; flexible cylinder elliptical model with Power Law. The procedure:
SANS was used to determine the morphology of the structures underpinning the hydrated peptide gel network. Both drug and non‐drug conjugated forms of peptides L‐α (NapFFKY‐OH and NapFFKYG‐OH) and D‐enantiomer (NapffkY‐OH and NapffkYG‐OH) were studied. Peptide hydrogels (2 w/v%) were formulated as described (Table S2, Supporting Information) in 2 mm path length UV spectrophotometer grade quartz cuvettes (Hellma) but using deuterated water (D2O) rather than PBS. SANS measurements were performed using the D11 instrument at the Institut Laue – Langevin, Grenoble, France. Scattering from the primary assembled structures (most commonly fibers) and the network were collected over a wide Q range (Q = 4πsin(θ/2)/λ) of 0.001 to 0.5 Å^−1 and three sample‐detector distances (1.4, 8, and 39 m).^[ [44] ^] Peptide samples were placed in a temperature‐controlled sample rack during measurements. The datasets obtained were reduced to 1D scattering curves of intensity versus Q using the facility provided software. Scattering from D2O controls, empty cuvette, and electronic background were subtracted from the data and the full detector images were normalized. SasView software version 5.0.4 was used to fit instrument‐independent data to several models with and without a power law applied, including a cylinder, an elliptical cylinder, a flexible cylinder, a flexible elliptical cylinder and hollow cylinders. […]

The test system of data set [2] is alkaline phosphatase enzyme. Nature of the data set: Rheological time sweeps, gelation time after alkaline phosphatase addition. It counts as physicochemical. The settings on record: time sweep, 2 w/v%, 2 U alkaline phosphatase, 37 °C; for G′ and G″ cross (gelation time): PP50/S parallel plate, 0.5 mm gap. The procedure: The gelation of peptides and peptide‐antiretroviral conjugates was tested over a range of concentrations (0.1–2 w/v%) in pH 7.4 phosphate buffered saline (PBS). The ability of alkaline phosphatase enzyme to trigger gelation was studied by adding 2 µL of 2 U (1000 U/mL) solution to the dissolved peptide‐PBS mixtures. Hydrogel formulation steps are outlined fully in Table S2, Supporting Information. A vial inversion assay was used as a screening tool to assess gel propensity, whereby peptide‐PBS‐alkaline phosphatase mixtures were inverted within glass HPLC vials. Gel formation and the mechanical strength of gels were definitively characterized via oscillatory rheology using an Anton Paar MCR302 rheometer (Anton Paar, St Albans, UK). A vane and cup geometry was used to perform frequency and strain sweeps. Gels were formulated as 2 mL volumes in 7 mL Sterilin vials as previously described.^[ [39b] ^] Frequency sweeps were performed at 37 °C from 1–100 rad/s at a strain of 0.5%. Amplitude sweeps were performed at 37 °C, 2.5 rad/s and a strain of 0.01–1000%. Flow point or breakage strain, where G″ ≥ G′ within the strain sweeps, was used as a measurement of gel strength. Time sweeps were performed using a sand blasted parallel plate PP50/S system at 37 °C with a 0.5 mm measuring gap over a period of 24 h. Loss and storage moduli, critical strain, viscosity, and oscillatory time sweeps were performed to relate rheological changes with time and potential for rapid in situ hydrogel implant formation upon exposure to 2 U phosphatase enzyme.
Table S3. Gelation times for peptide hydrogels upon addition of alkaline phosphatase enzyme derived from data above in Figure S12 and Figure 3 c-d.
Peptide G′ and G″ G′ > 2x G′′ Time for […]
d) NapFFK(AZT)Y-OH 8.5 min 9 min 88.3 min

The test system of the next data set is NCTC 929 cells. The data set can be described thus: 56 day indirect toxicity of hydrogels, LDH. Format: cell-based, murine. The settings on record: 2 w/v% hydrogel supernatant; 6 h exposure; n = 3. The procedure: Biocompatibility at the highest gel concentration of 2.0 w/v% was examined by measuring cell metabolic activity (MTS) and cytotoxicity (LDH release) in the presence of media containing leached degradation products from the peptide gels over a period of 56 days.^[ [77] ^] Following the formation of gels as outlined in Table S2, Supporting Information, 2 mL of media was added on top of each gel (1 mL of 2 w/v% gel) within a 10 mL glass vial and incubated at 37 °C and 5% CO2. For each time point in the 56 day study, NCTC 929 cells at 80–90% confluency were seeded into the wells of a 96 well plate at a concentration of 1 × 10^4 cells per well and incubated for a period of 24 h. One set of wells was left untreated and acted as the negative control, that is, metabolic activity of cells with no peptide. In the case of the LDH indirect toxicity assay, the media was removed from the cells before adding 50 µL of fresh media and 50 µL of the supernatant from the 2.0 w/v% gels at specific time points: 1, 3, 7, 14, 21, 28, and 56 days and incubated for 6 h before adding the test reagent as described above. A high LDH release control and a low LDH release control were created as before. Each experiment was performed in triplicate. The percentage cytotoxicity was calculated using Equation (2) above. […] The metabolic activity was calculated using Equation (1) above.

Where a SMILES comes first, the peptide text is derived from it. [ ]: non-standard residue; d: D form. The star is where a group is joined. X1 = Cc1cn([C@H]2C[C@H](N=[N+]=[N-])[C@@H](COC(=O)CCC(=O)*)O2)c(=O)[nH]c1=O; Acetyl(2-naphthyl) = O=C(Cc1ccc2ccccc2c1)*; pY = N[C@@H](Cc1ccc(OP(=O)(O)O)cc1)C(=O)O

Protocol for NCTC 929 (ATCC CCL 1): Cell toxicity was assessed above and below critical gelation concentrations utilizing the International Standard (ISO) murine fibroblast subcutaneous connective tissue cell line NCTC 929 (ATCC CCL 1).^[ [51] ^]
Preparation of tissue cell cytotoxicity assays: Cells were cultured in Minimum Essential Medium (MEM) containing phenol red, Earle's Salts, and L‐glutamine supplemented with 10% fetal bovine serum and 1 mM sodium pyruvate (Invitrogen, Paisley, UK) and grown at 37 °C/5% CO2. Cells were subcultured at 80–90% confluency via removal of media, washing with sterile PBS, and detachment of cell monolayers with 0.05% trypsin/0.53 mM EDTA.4Na solution (Invitrogen, Paisley, UK). Cells were cultured until at least the third passage, seeded at 1 × 10^4 cells per well in sterile 96‐well microtiter plates for 6 h, 24 h, and 56 day treatment times and seeded at 5 × 10^3 cells per well for 72 h treatment times. […]
Following exposure to peptide after 6, 24 and 72 h, cell viability was assessed using a MTS based CellTiter 96 AQueous One Solution Cell Proliferation Assay (Promega, Southampton, UK). Absorption was measured at 490 nm using a Tecan Sunrise plate reader (Tecan UK Ltd, Reading, UK). Cell viability was calculated using Equation (2) below and reported as the mean of nine replicates.

For `Cc1cn([C@H]2C[C@H](N=[N+]=[N-])[C@@H](COC(=O)CCC(=O)NCCCC[C@H](NC(=O)[C@H](Cc3ccccc3)NC(=O)[C@H](Cc3ccccc3)NC(=O)Cc3ccc4ccccc4c3)C(=O)N[C@@H](Cc3ccc(OP(=O)(O)O)cc3)C(=O)O)O2)c(=O)[nH]c1=O` [NapFFK(AZT)Y(p)-OH] ({Acetyl(2-naphthyl)}-FFK(X1)[pY]-OH), in the data set on NCTC 929 (ATCC CCL 1), the “reduction in cell metabolic activity (MTS)” value is 40–51%.

For `Cc1cn([C@H]2C[C@H](N=[N+]=[N-])[C@@H](COC(=O)CCC(=O)NCCCC[C@H](NC(=O)[C@H](Cc3ccccc3)NC(=O)[C@H](Cc3ccccc3)NC(=O)Cc3ccc4ccccc4c3)C(=O)N[C@@H](Cc3ccc(OP(=O)(O)O)cc3)C(=O)NCC(=O)O)O2)c(=O)[nH]c1=O` [NapFFK(AZT)Y(p)G-OH], where the note is “subcutaneous administration, within IC50 range”, the “zidovudine blood plasma concentrations for 35 days” value lay in the range of 30 to 130 ng/mL.

For the compound `NCCCC[C@H](NC(=O)[C@H](Cc1ccccc1)NC(=O)[C@H](Cc1ccccc1)NC(=O)Cc1ccc2ccccc2c1)C(=O)N[C@@H](Cc1ccc(OP(=O)(O)O)cc1)C(=O)O` [NapFFKY(p)-OH, phosphorylated (naphthalene‐2‐ly)‐acetyl‐diphenylalanine‐lysine‐tyrosine‐OH] (HELM PEPTIDE1{[O=C(Cc1ccc2ccccc2c1)[*:2]].F.F.K.[O=C(O)[C@H](Cc1ccc(OP(=O)(O)O)cc1)N[*:1]]}$$$$V2.0), the “% peptide remaining” value on proteinase K is given as 85.4%.

Turning to `NCCCC[C@H](NC(=O)[C@H](Cc1ccccc1)NC(=O)[C@H](Cc1ccccc1)NC(=O)Cc1ccc2ccccc2c1)C(=O)N[C@@H](Cc1ccc(OP(=O)(O)O)cc1)C(=O)NCC(=O)O` [NapFFKY(p)G-OH], at proteinase K, the “% peptide remaining” value amounted to 91.9%.

As to `Cc1cn([C@H]2C[C@H](N=[N+]=[N-])[C@@H](CO)O2)c(=O)[nH]c1=O` [zidovudine, reference compound], the “time after which plasma zidovudine is undetectable” value (zidovudine intravenous control) worked out at 6 h.

The compound “NapFFKY-OH [hydrogel-forming peptide after phosphatase removal of the phosphate group]” registered a fiber radius in data set [1] of 1.495 nm. In addition, in data set [2], the “G′ > 2x G″” value is given as 9.67 min; the “Time for stable G′” value was 68.3 min; the “G′ and G″ cross (gelation time)” value stood at 8.58 min.

As to “NapFFKYG-OH [hydrogel-forming L-α peptide with glycine spacer]”, the fiber radius in data set [1] is given as 2.038 nm. For the same compound, in data set [2], the “G′ > 2x G″” value stood at 7.75 min; the “Time for stable G′” value is reported as 65.7 min; the “G′ and G″ cross (gelation time)” value came out at 5.92 min. Also, in the data set with NCTC 929 cells, the “LDH cell toxicity, indirect, after 21 days” value was 23.2% and the “LDH cell toxicity, indirect, after 56 days” value is 37%.
